Measurements from patent US20090087378A1, “Positron Tomography Method and Positron-Emitting Compound to Be Used Therein” (NARD INSTITUTE, LTD., priority 2006, published 2009).
Like-named read-outs stand apart in the source and are kept apart here.

How the values were obtained:
Format in all cases: in vivo, rhesus monkey
[1] = molecular target: T1, α7 nicotine receptor (Macaca mulatta, UniProt Q866A2)
T1 construct: from tissue; host or cells: brain of the living animal (in vivo PET)
Protocol: (§1) After 30 minutes, compound (Ia) or (Ib) was administered by intravenous injection, and dynamic measurement was performed for 91 minutes. After the obtained images were reconstituted, a region of interest (ROI) was set in each part of the brain, and kinetics of radioactivity was determined in each region.

[2] = system: α4β2 nicotine receptor; experiment: Test for selectivity to α7 nicotine receptor: PET brain uptake after pre-administration of α4β2-selective agonist A85380
Protocol: as §1

[3] = Test for determining the amount of uptake of positron-emitting source compound (PET of brain after intravenous injection); settings: for kinetics in the brain: rhesus monkey, intravenous, PET
Protocol: A rhesus monkey (male, 5.5 kg in weight) was fasted overnight prior to the assay date. The monkey was seated on a monkey chair, and its head was fixed in a gantry of an animal PET camera (SHR-7700 manufactured by Hamamatsu Photonics K.K.) by a head positioner. Transmission measurement was performed for 30 minutes for […]. The injection products prepared in Production Examples 1-3 and 2 were then intravenously administered in doses of 77 ng/kg weight in terms of the amount of compound (Ia) and 230 ng/kg weight in terms of the amount of compound (Ib), respectively, and dynamic measurement was performed for 180 minutes. After the obtained images were reconstituted, a region of interest (ROI) was set in each part of the brain, and kinetics of radioactivity was determined in each region.

T1 sequence (Q866A2 23-502): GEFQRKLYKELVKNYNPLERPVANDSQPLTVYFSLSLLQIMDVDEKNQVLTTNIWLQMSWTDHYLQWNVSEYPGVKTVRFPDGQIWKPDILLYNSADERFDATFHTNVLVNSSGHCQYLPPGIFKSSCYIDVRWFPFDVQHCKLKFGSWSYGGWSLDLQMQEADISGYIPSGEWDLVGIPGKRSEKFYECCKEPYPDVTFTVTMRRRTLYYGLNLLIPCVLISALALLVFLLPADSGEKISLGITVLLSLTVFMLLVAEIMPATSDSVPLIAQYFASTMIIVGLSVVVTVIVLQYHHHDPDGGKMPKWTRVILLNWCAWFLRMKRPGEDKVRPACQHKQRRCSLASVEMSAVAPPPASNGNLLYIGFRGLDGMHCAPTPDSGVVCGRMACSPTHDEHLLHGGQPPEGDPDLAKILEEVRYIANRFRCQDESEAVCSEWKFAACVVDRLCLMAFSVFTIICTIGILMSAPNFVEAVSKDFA

SMILES | binding selectivity to α7 nicotine receptor ([1]; rhesus monkey, in vivo) | uptake into each part of the brain after pre-administered α7 nicotine receptor-selective agonist ([1]; rhesus monkey, in vivo) | effect of pre-administered α4β2 nicotine receptor-selective agonist on uptake into each part of the brain ([2]; rhesus monkey, in vivo) | time of peak value of radioactivity, hippocampus ([3]; after the administration) [min] | amount of uptake in the brain ([3]; compared with compound (Ia)) | kinetics in the brain [3] | uptake into each part of the brain after pre-administered α7 nicotine receptor-selective agonist ([1]; SSR180711A 1 or 5 mg/kg i.v. 30 minutes before the compound, depending on the dose of the agonist) | binding selectivity to α7 nicotine receptor ([1]; conclusion from blocking with SSR180711A and A85380) | effect of pre-administered α4β2 nicotine receptor-selective agonist on uptake into each part of the brain ([2]; A85380 5 mg/kg i.v. 30 minutes before the compound) | time of peak value of radioactivity, most/other parts of the brain ([3]; after the administration, brain parts except hippocampus) | distribution of the concentrated compound in the brain ([3]; integrated images 40 to 60 minutes after the administration)
O=C(Oc1ccc([76Br])cc1)N1CCN2CCC1CC2 [Compound (Ib), 4-[^76Br]bromophenyl 1,4-diazabicyclo[3.2.2]nonane-4-carboxylate] | selective binding to α7 nicotine receptor | reduced to the level in the cerebellum | almost no effect | 60 | not as large as that of compound (Ia) | generally slow | – | – | – | – | –
[11CH3]c1ccc(OC(=O)N2CCN3CCC2CC3)cc1 [Compound (Ia), 4-[^11C]methyl-phenyl 1,4-diazabicyclo[3.2.2]nonane-4-carboxylate] | – | – | – | 30 | – | relatively fast | reduced to the level in the cerebellum | selective binding to α7 nicotine receptor | almost no effect | about 10 minutes | high in hippocampus, corpus striatum, thalamus, cingulate gyrus and cerebral cortex, but low in cerebellum
